Measurements from paper PMC2784364, “VX-166: a novel potent small molecule caspase inhibitor as a potential therapy for sepsis” (Critical Care, 2009).
Peptide text beside a SMILES is read from it. * marks the point of attachment. Cbz = O=C(OCc1ccccc1)*; CH2F = FC*

Legend:
[1] = tested on: IL-2 release from peripheral blood mononuclear cells; experiment: IL-2 release from anti-CD3/CD28 stimulated PBMC; format: cell-based, human; conditions: anti-CD3/CD28 stimulated human PBMC, 24 hours; read-out: IC50, inhibition of IL-2 release
Experimental: PBMC from healthy donors were isolated as described above. To the wells of a 96-well plate previously coated with 1.5 μg/ml anti-hCD3 (Serotec, Kidlington, UK), 5 × 10^5 cells/ml and 1 μg/ml anti-hCD28 (BD Biosciences, Oxford, UK) were added. Plates were then incubated for 24 hours in the presence or absence of VX-166 or the calcineurin inhibitor FK506 (Merck Biosciences Ltd., Nottingham, UK). IL-2 release into the supernatant was subsequently determined by ELISA (R&D Systems, Abingdon, UK) following the manufacturer's instructions.

Jurkat cells = experiment: Anti-Fas induced apoptosis in Jurkat cells, Annexin V; format: cell-based, human; conditions: Fas-induced apoptosis, readout not specified, data not shown; read-out: IC50 in Fas-assay
Experimental: Jurkat cells were obtained from LGC Standards (Teddington, UK) and were grown in RPMI 1640, 10% FCS, 2 mM L-glutamine, 100 U/ml penicillin and 0.1 mg/ml streptomycin (all from Sigma Aldrich Ltd., Poole, UK) at 37°C in 5% CO2/95% humidity. Receptor- or stress-mediated apoptosis (2 × 10^5 cells/ml) was induced by addition of either anti-Fas antibody CH-11 (10 ng/ml, Millipore UK Ltd., Watford, UK), TNF-α (20 ng/ml, R&D Systems, Abingdon, UK) with cycloheximide (112 ng/ml, Sigma Aldrich Ltd., Poole, UK) or staurosporine (350 ng/ml, Sigma Aldrich Ltd., Poole, UK). VX-166 was diluted into DMSO (10 mM), further diluted in media and added at a range of concentrations. Cells were then incubated for 18 hours. Apoptotic cells were then labelled with Cy5-conjugated Annexin-V (BD Biosciences, Oxford, UK) and detected using a FMAT™ 8100 Fluorimetric Microassay Technology Reader (Applied Biosystems, Warrington, UK). For the experiments using anti-Fas antibody, apoptosis was additionally measured using a Cell Death Detection ELISA kit (Roche Diagnostics Ltd., Lewes, UK) following the manufacturer's instructions.

[2] = tested on: IL-2 release from activated T-cells; set-up: method as in PMID 10601363; conditions: 50 μM; cited from earlier work

IC50 [1] [nM]	Compound	IC50 (Jurkat cells) [nM]	block of IL-2 release from activated T-cells [2]
0.2	C=CC[C@@H]1/C=C(\C)C[C@H](C)C[C@H](OC)[C@H]2O[C@@](O)(C(=O)C(=O)N3CCCC[C@H]3C(=O)O[C@H](/C(C)=C/[C@@H]3CC[C@@H](O)[C@H](OC)C3)[C@H](C)[C@@H](O)CC1=O)[C@H](C)C[C@@H]2OC [FK506, reference compound]		
	COC(=O)C[C@H](NC(=O)[C@H](C)NC(=O)[C@@H](NC(=O)OCc1ccccc1)C(C)C)C(=O)CF [zVAD-FMK, reference compound] (Cbz-Val-Ala-Asp(OMe)-CH2F)	230	block IL-2 release
	IETD-FMK		block IL-2 release
